Each block holds one compound with its values, some of them ahead of it.
How the values were obtained:
[1] = Chemical stability of conjugates in neutral, acidic and basic solutions; type: physicochemical
Protocol: Exemplary expérimental results showing the efficacy of certain embodiments of the combinations of the invention are set forth in the drawings. Stability studies were performed on thioester conjugates of N-acetylcysteine and salicylate, diflunisal or dexibuprofen, at neutral (pH 7), acidic, or basic (9) pH in phosphate-buffered saline (PBS). […] Diflunisal-NAC conjugates were tested for 3 or 24 hours under the same neutral, acidic and basic conditions, at room température or 4° C., and in PBS or mixture of water and méthanol.

[2] = Cleavage by rat liver microsomes; type: in vitro ADME; conditions: 1 hour incubation; for cleavage of conjugate, rat versus human microsomes: free salicylate or diflunisal assayed
Protocol: (§1) In vitro cleavage experiments were performed substantiallas described in Singh et al., 1996, In vitro metabolism of a potent HIV-protease inhibitor (141W94) using rat, monkey and human liver S9, Rapid Commun. Mass Spectrom. 10: 1019-1026. Briefly, conjugate compounds of the invention were incubated at a final concentration of 1 microM for 1 hour in the presence of human or rat liver microsome S9 (obtained from Xenotech). At the end of incubation at each of the time points reported, an equal volume of an organic mixture (acetonitrile/methanol, 50/50, v/v) was added to the incubation mixture followed by centrifugation. At this time blank microsomal extract was spiked with metabolites to create calibration standards for each metabolite at the following concentrations: 0 (blank), 0.05, 0.1, 0.5 and 1 microM. All samples were analyzed by HPLC-MS/MS and the peak areas corresponding to the expected metabolites (generally, antioxidant and anti-inflammatory cleaysasge products) were determined by HPLC-MS/MS. The amount of each metabolite present in the 60 minute incubation samples was determined from the corresponding calibration curve.
The capacity for conjugates of the invention to be cleaved was tested in vitro using rat or human liver microsomes. […] Similar experiments were performed in plasma from rat or human for salicylate-NAC or diflunisal-NAC conjugates; thèse results are shown in FIGS. 3 and 4, respectively.

[3] = system: alloxan-treated cd-1 mice; assay: In vivo beta cell protection model (alloxan); conditions: for plasma insulin levels: lysine salt, alloxan-treated (FIG. 6)
Protocol: Beta-cell destruction was induced in cd-1 mice after 3 hours of fasting by a single intraperitoneal injection of a freshly prepared solution of alloxan 200 mg/kg (Sigma-Aldrich, San Luis, Mo.) that was dissolved in NaCl 0.9%. Single intraperitoneal drug administration was 1 hour before the alloxan administration. Animals received the different drugs dissolved in PBS pH 7.4, and the animals that not received any drug were injected with the vehicle, in this case PBS pH 7.4. At the end of the treatment, at day 4, animals were killed and the plasma collected and kept at −20° C. until used.
(§2) The circulating glucose concentration was determined by a rapid glucose analyzer (Accu-Chek Aviva; Roche). Plasma triglycerides and non esterified fatty acids were determined with standard colorimetric methods (Biosystems, Barcelona, Spain, and Wako Chemicals, Neuss, Germany, respectively). Plasma insulin concentration was determined by enzyme-linked immunosorbent assay method (CrystalChem, Downers Grove, Ill.). Total pancreas insulin content has been determined after extraction of insulin with a mixture Ethanol (70%)/HCl (0.15 N) from pancreas homogenates.

[4] = system: db/db mice; assay: Chronic treatment in db/db mice; type: in vivo
[5] = system: db/db mice; assay: Intraperitoneal glucose tolerance test in db/db mice; type: in vivo; conditions: salicylate-NAC 1.5, diflunisal-NAC 0.5 mmol/kg/day as lysine salt; glucose 0.5 g/kg ip, 120 minute timecourse
Protocol: At the fourth week of treatment, a Glucose Tolerance Test was done to the mice after an overnight fasting. The animals received an ip injection of Glucose 0.5 g/kg (Glucosmon 50®). The glycemia levels were determined in blood at the indicated time from the Tail Vein after the Glucose injection using a rapid glucose analyzer.

[6] = Cleavage by human liver microsomes; type: in vitro ADME; conditions: 1 hour incubation; diflunisal-NAC compared with salicylate-NAC
Protocol: as §1
The capacity for conjugates of the invention to be cleaved was tested in vitro using rat or human liver microsomes. […]

[7] = system: db/db mice; assay: Pancreas insulin content and immunohistochemical analysis of pancreas sections in db/db mice; type: in vivo; conditions: chronic oral, four weeks, 0.5 mmol/kg/day (FIG. 24)
Protocol: as §2
The pancreas was removed from each mouse and fixed overnight in a solution of 4% formalin. Fixed tissues were processed routinely for paraffin embedding, and 6-μm sections were prepared and mounted on slides treated with xilane. For detection of insulin, the avidin-biotin complex (ABC) method was performed using Vectastain ABC Kit (Vector Laboratories). Deparaffinized and […] sections were microwaved in citrate buffer (pH 6.0) for antigen retrieval, then were incubated in Tris 100 mM pH 7.4 containing 3% BSA, and 0.01% Triton, to permeabilize and block nonspecific staining, for 30 min, and after that, were incubated with the guinea pig polyclonal anti-insulin antibody (Dako), diluted 1/500 in blocking solution for 2 hours. Negative controls were incubated with blocking solution without the primary antibody. […]

[8] = Diflunisal and NAC blood levels after oral administration of conjugate versus separate components; type: in vivo, rats; conditions: 7-hour timecourse (FIG. 16)
Protocol: A comparison of diflunisal and NAC levels in blood after oral administration was performed in rats by administration of the diflunisal-NAC conjugate (GMC-252) or the individual components separately (i.e., not chemically conjugated). Conjugate (20 mg/kg) or the equivalent amount of difliunisal and NAC were administered and blood assayed over a 7-hour timecourse.

[9] = system: control animals; assay: Preliminary experiment with control animals (oral diflunisal-NAC); type: in vivo; conditions: oral 0.5 mmol/kg
[10] = system: human diabetic patients; conditions: 4.5 g/day; cited from earlier work
[11] = 0.75 mmol/kg/day as lysine salt, ip, compared with separate administration of salicylate or NAC (FIG. 7)

stability of free acid in water/methanol mixture ([1]; free acid, water/methanol, 3 and 24 hours (diflunisal-NAC: neutral pH, room temperature)): stable for 3- and 24-hour incubation
stability of lysine salt at neutral pH ([1]; lysine salt, neutral pH, room temperature or 4° C.): stable as lysine salts
SMILES: CC(=O)NC(CSC(=O)C(C)c1ccc(CC(C)C)cc1)C(=O)O (stereo not drawn) [Dexibuprofen-NAC]

stability under acidic conditions, lysine salt ([1]; 3 h): stable after 3 hours
stability, free acid in the absence of lysine ([1]; 3 days): lost stability during a 3-day timecourse
SMILES: CC(=O)N[C@@H](CSC(=O)c1ccccc1O)C(=O)O [Example 1, (R)-2-acetamido-3-(2-hydroxybenzoylthio)propanoic acid]
detectable conjugate under basic conditions ([1]; basic pH (9), PBS, room temperature, 3 hour incubation, free acid and lysine salt tested): only the lysine salt showed any (sparing) détectable conjugate
cleavage of conjugate, rat versus human microsomes [2]: Rat microsomes were found to be more potent in cleaving
glycemia ([3]; 0.38 mmol/kg or equivalent amount of combination, 4-day timecourse, male cd-1 mice (FIG. 17)): statistically-significant reduction
pancreatic beta-cell function (as assessed by plasma insulin levels) ([3]; alloxan-treated mice (FIG. 17)): statistically-significant potection of pancreatic beta-cell function
plasma insulin levels ([3]; i.p., listed as GMC-3a): preservation of insulin levels
plasma insulin levels ([3]; i.p., listed as salicylate-NAC): an increase in plasma insulin levels
effect of alloxan on β-cells ([3]; lysine salts (FIG. 6)): reduce the effect of alloxan on β-cells
glycemia ([3]; lysine salts, i.p., 4-day timecourse (FIG. 6)): statistically-significant reductions in glycemia
free fatty acid levels ([4]; 0.38 mmol/kg/day or equivalent amount of combination (FIG. 18)): lowered significantly only by the conjugate
free fatty acid levels [4, 11]: significantly improved
plasma triglyceride levels [4, 11]: significantly improved
free fatty acid levels ([4]; 0.75 mmol/kg/day or equivalent amount of combination (FIG. 18)): statistically-significant reductions
triglycerides ([4]; chronic oral, diflunisal-NAC 0.5, salicylate-NAC 1.5 mmol/kg/day as lysine salt (FIG. 11)): significant réductions in triglycerides
plasma glucose in glucose tolerance test [5]: reductions in plasma glucose

stability of lysine salt in PBS, 3 hours [1]: stable
stability of lysine salt in water/methanol mixture [1]: did not show comparable stability
stability of lysine salt in PBS, 24 hours ([1]; 24 h, pH 7): not after 24 hours
stability of free acid in water/methanol mixture ([1]; pH 7): stable over 3 and 24 hours
epididimal adipose tissue weight ([4]; oral 0.5 mmol/kg, treated group (vehicle 1.7±0.09)): 1.8 ± 0.07 g
macroscopic lesions of the gastro intestinal system ([4]; oral treatment of db/db mice): did not induce any macroscopic lesions
pancreatic weight [7]: without affecting pancreatic weight
final plasma concentrations of diflunisal and NAC ([8]; oral 20 mg/kg conjugate versus separate components): the final concentrations were the same
SMILES: CC(=O)N[C@@H](CSC(=O)c1cc(-c2ccc(F)cc2F)ccc1O)C(=O)O [Example 13]
cleavage of conjugate, rat versus human microsomes [2]: Rat microsomes were found to be more potent in cleaving
percentage of anti-inflammatory component released by rat liver microsomes ([2]; diflunisal-NAC compared with salicylate-NAC): a higher percentage of diflunisal that salicyalte was released
percentage of anti-inflammatory component released by human liver microsomes [6]: a higher percentage of diflunisal that salicyalte was released
body weight of treated db/db mice ([4]; oral 0.5 mmol/kg (FIG. 20)): did not affect the weight
plasma concentration profile of diflunisal and NAC ([8]; oral 20 mg/kg conjugate versus equivalent diflunisal and NAC given separately): a more gradual increase in plasma concentrations
body weight and epididimal adipose tissue weight [9]: did not affect these two parameters

SMILES: O=C(Oc1ccccc1C(=O)O)c1ccccc1O [salsalate]
enhancement of side effects such as tinnitus [10]: 66%

From patent publication US8575217B2, “Anti-inflammatory and antioxidant conjugates useful for treating metabolic disorders” (Genmedica Therapeutics SL, priority 2009, dated 2013)
